According to ChEMBL document CHEMBL2010676, “Metabolites of Microcystis aeruginosa bloom material from Lake Kinneret, Israel” (J Nat Prod, 2012):
Active and inactive are the calls of the source. No cut-off for these calls is given here.

Assays:
[1] = Inhibition of trypsin at 45.5 uM
[2] = target: Prothrombin (Homo sapiens) (UniProt P00734); test: Inhibition of thrombin at 45.5 uM
[3] = target: T1, Aminopeptidase N (Bos taurus) (UniProt P79098); test: Inhibition of bovine amino peptidase N at 45.5 uM
T1 sequence (whole entry): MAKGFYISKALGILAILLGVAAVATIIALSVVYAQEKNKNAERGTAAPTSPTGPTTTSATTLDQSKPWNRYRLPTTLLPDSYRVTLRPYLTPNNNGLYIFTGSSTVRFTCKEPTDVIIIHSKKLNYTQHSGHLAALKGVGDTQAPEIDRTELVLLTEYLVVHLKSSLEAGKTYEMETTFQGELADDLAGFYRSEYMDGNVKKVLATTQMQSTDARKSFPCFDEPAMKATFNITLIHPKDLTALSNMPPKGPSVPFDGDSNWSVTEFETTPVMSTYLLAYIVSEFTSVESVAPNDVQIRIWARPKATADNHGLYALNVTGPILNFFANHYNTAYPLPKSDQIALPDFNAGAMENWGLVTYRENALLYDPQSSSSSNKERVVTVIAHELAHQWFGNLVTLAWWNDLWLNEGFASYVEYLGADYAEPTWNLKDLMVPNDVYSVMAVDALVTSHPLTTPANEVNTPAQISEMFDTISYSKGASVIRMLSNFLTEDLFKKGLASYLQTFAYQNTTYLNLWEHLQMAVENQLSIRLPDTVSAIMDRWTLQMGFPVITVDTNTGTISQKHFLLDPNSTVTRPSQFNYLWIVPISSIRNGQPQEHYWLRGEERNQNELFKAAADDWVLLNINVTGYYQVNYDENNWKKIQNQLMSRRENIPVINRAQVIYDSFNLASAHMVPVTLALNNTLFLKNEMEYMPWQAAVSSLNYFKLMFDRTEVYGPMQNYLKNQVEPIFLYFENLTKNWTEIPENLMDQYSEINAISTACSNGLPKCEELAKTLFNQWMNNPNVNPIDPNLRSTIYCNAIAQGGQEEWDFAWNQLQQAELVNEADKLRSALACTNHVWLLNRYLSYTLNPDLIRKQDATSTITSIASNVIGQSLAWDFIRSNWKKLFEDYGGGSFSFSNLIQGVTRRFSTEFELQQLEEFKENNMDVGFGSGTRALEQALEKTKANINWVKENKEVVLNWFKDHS

HCT-116 = test: Cytotoxicity against human HCT116 cells at 1.6 uM; format: functional, cell-based
[4] = Inhibition of elastase at 45.5 uM
[5] = Inhibition of trypsin
[6] = target: Prothrombin (Homo sapiens) (UniProt P00734); test: Induction of thrombin activity at 45.5 uM
[7] = Inhibition of chymotrypsin at 45.5 uM
[8] = Inhibition of chymotrypsin

CC(OC(=O)C(CCCNC(=N)N)[N+](C)(C)C)C(OS(=O)(=O)[O-])c1ccc(OS(=O)(=O)O)c(COS(=O)(=O)O)c1 (stereo not drawn)
inhibition [1]: inactive | inhibition [2]: inactive | inhibition [3]: inactive | Activity (HCT-116): inactive

N=C(N)NCCCCNC(=O)[C@H]1C[C@H]2CC[C@@H](O)C[C@H]2N1C(=O)[C@@H](Cc1ccccc1)NC(=O)[C@@H](O)Cc1ccc(O)cc1
inhibition [4]: inactive | IC50 [5]: 1.9 µM | Activity [6]: 30% | inhibition [7]: inactive

CC[C@@H](C)[C@H]1C(=O)N(C)[C@@H](Cc2ccccc2)C(=O)N[C@@H](C(C)C)C(=O)O[C@H](C)[C@H](NC(=O)[C@H](CCC(N)=O)NC(=O)[C@H](O)Cc2ccc(O)cc2)C(=O)N[C@@H](Cc2ccc(O)cc2)C(=O)N[C@H]2CC[C@@H](O)N1C2=O (relative stereo)
IC50 [8]: 260 nM | inhibition [1]: inactive | inhibition [2]: inactive | inhibition [4]: inactive

CC(C)C[C@@H](NC(=O)[C@H](O)Cc1ccc(O)cc1)C(=O)N[C@@H](Cc1ccccc1)C(=O)NCCCCNC(=N)N
inhibition [2]: inactive | inhibition [4]: inactive | IC50 [5]: 45.5 µM | inhibition [7]: inactive

N=C(N)NCCCCNC(=O)[C@H]1C[C@H]2CC[C@@H](O)C[C@H]2N1C(=O)[C@@H](Cc1ccccc1)NC(=O)[C@H](O)Cc1ccc(O)cc1
inhibition [2]: < 50% | inhibition [4]: inactive | IC50 [5]: 1.3 µM | inhibition [7]: inactive

CC(=O)O[C@H](Cc1ccc(O)cc1)C(=O)N[C@H](Cc1ccccc1)C(=O)N1[C@@H](C(=O)NCCCCNC(=N)N)C[C@H]2CC[C@@H](O)C[C@H]21
inhibition [2]: < 50% | inhibition [4]: inactive | IC50 [5]: 19.9 µM | inhibition [7]: inactive

CC(=O)O[C@@H]1CC[C@@H]2C[C@H](C(N)=O)N(C(=O)[C@@H](Cc3ccc(O)cc3)NC(=O)[C@@H](O)Cc3ccc(O)cc3)[C@@H]2C1
inhibition [2]: inactive | inhibition [4]: inactive | IC50 [5]: 45.5 µM | inhibition [7]: inactive
